Each block holds one compound with its values, some of them ahead of it.
Assay: in vitro
Conditions: for Concentration (μM) of analyte PEA, 0 min / Concentration (μM) of analyte PEA, 10 min / Concentration (μM) of analyte PEA, 20 min / Concentration (μM) of analyte PEA, 30 min / Concentration (μM) of analyte PEA, 60 min / % Remaining of Initial (n = 1), 0 min / % Remaining of Initial (n = 1), 10 min / % Remaining of Initial (n = 1), 20 min / % Remaining of Initial (n = 1), 30 min / % Remaining of Initial (n = 1), 60 min: 1 μM; for % Remaining of Initial (n = 1), 0 min: s9, 0 h; for % Remaining of Initial (n = 1), 10 min: s9, 10 min; for % Remaining of Initial (n = 1), 20 min: s9, 20 min; for % Remaining of Initial (n = 1), 30 min: s9, 0.5 h; for % Remaining of Initial (n = 1), 60 min: s9, 1 h; for half-life at 1 μM: s9, Half-life (min)
Summary of the method: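 Test article (1 µM final) was pre-equilibrated at 37 °C in S9 reaction mixture, then the cofactor cocktail was added to start the reaction. Samples taken at 0, 10, 20, 30 and 60 min were quenched in cold acidified acetonitrile. LC-MS/MS tracked prodrug and released PEA, and half-lives came from single-phase exponential decay fits.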

Concentration (μM) of analyte PEA, 0 min (both, human): 0.20 µM
Concentration (μM) of analyte PEA, 10 min (both, human): 0.23 µM
Concentration (μM) of analyte PEA, 20 min (both, human): 0.18 µM
Concentration (μM) of analyte PEA, 30 min (both, human): 0.096 µM
Concentration (μM) of analyte PEA, 60 min (both, human): 0.033 µM
% Remaining of Initial (n = 1), 0 min (both, human): 100%
% Remaining of Initial (n = 1), 10 min (both, human): 6.0%
% Remaining of Initial (n = 1), 20 min (both, human): 1.3%
% Remaining of Initial (n = 1), 30 min (both, human): <1.0%
% Remaining of Initial (n = 1), 60 min (both, human): <1.0%
Concentration (μM) of analyte PEA, 0 min (male, Beagle, dog): 0.23 µM
Concentration (μM) of analyte PEA, 10 min (male, Beagle, dog): 0.38 µM
Concentration (μM) of analyte PEA, 20 min (male, Beagle, dog): 0.35 µM
Concentration (μM) of analyte PEA, 30 min (male, Beagle, dog): 0.21 µM
Concentration (μM) of analyte PEA, 60 min (male, Beagle, dog): 0.11 µM
% Remaining of Initial (n = 1), 0 min (male, Beagle, dog): 100%
% Remaining of Initial (n = 1), 10 min (male, Beagle, dog): 5.1%
% Remaining of Initial (n = 1), 20 min (male, Beagle, dog): 2.0%
% Remaining of Initial (n = 1), 30 min (male, Beagle, dog): <1.0%
% Remaining of Initial (n = 1), 60 min (male, Beagle, dog): <1.0%
Concentration (μM) of analyte PEA, 0 min (male, CD-1, mouse): 0.51 µM
Concentration (μM) of analyte PEA, 10 min (male, CD-1, mouse): 0.26 µM
Concentration (μM) of analyte PEA, 20 min (male, CD-1, mouse): 0.19 µM
Concentration (μM) of analyte PEA, 30 min (male, CD-1, mouse): 0.12 µM
Concentration (μM) of analyte PEA, 60 min (male, CD-1, mouse): 0.022 µM
% Remaining of Initial (n = 1), 0 min (male, CD-1, mouse): 100%
% Remaining of Initial (n = 1), 10 min (male, CD-1, mouse): <1.0%
% Remaining of Initial (n = 1), 20 min (male, CD-1, mouse): <1.0%
% Remaining of Initial (n = 1), 30 min (male, CD-1, mouse): <1.0%
% Remaining of Initial (n = 1), 60 min (male, CD-1, mouse): <1.0%
half-life at 1 μM (male, CD-1, mouse): < 0.0167 h
Concentration (μM) of analyte PEA, 0 min (male, Sprague-Dawley, rat): 0.50 µM
Concentration (μM) of analyte PEA, 10 min (male, Sprague-Dawley, rat): 0.31 µM
Concentration (μM) of analyte PEA, 20 min (male, Sprague-Dawley, rat): 0.17 µM
Concentration (μM) of analyte PEA, 30 min (male, Sprague-Dawley, rat): 0.11 µM
Concentration (μM) of analyte PEA, 60 min (male, Sprague-Dawley, rat): 0.023 µM
% Remaining of Initial (n = 1), 0 min (male, Sprague-Dawley, rat): 100%
% Remaining of Initial (n = 1), 10 min (male, Sprague-Dawley, rat): <1.0%
% Remaining of Initial (n = 1), 20 min (male, Sprague-Dawley, rat): <1.0%
% Remaining of Initial (n = 1), 30 min (male, Sprague-Dawley, rat): <1.0%
% Remaining of Initial (n = 1), 60 min (male, Sprague-Dawley, rat): <1.0%
half-life at 1 μM (male, Sprague-Dawley, rat): < 0.0167 h
Structure (SMILES): CCCCCCCCCCCCCCCC(=O)NCCOC(=O)CCC [Compound I-2]

Concentration (μM) of analyte PEA, 0 min (both, human): 0.024 µM
Concentration (μM) of analyte PEA, 10 min (both, human): 0.036 µM
Concentration (μM) of analyte PEA, 20 min (both, human): 0.036 µM
Concentration (μM) of analyte PEA, 30 min (both, human): 0.025 µM
Concentration (μM) of analyte PEA, 60 min (both, human): 0.018 µM
% Remaining of Initial (n = 1), 0 min (both, human): 100%
% Remaining of Initial (n = 1), 10 min (both, human): 80%
% Remaining of Initial (n = 1), 20 min (both, human): 81%
% Remaining of Initial (n = 1), 30 min (both, human): 70%
% Remaining of Initial (n = 1), 60 min (both, human): 72%
half-life at 1 μM (both, human): > 1 h
Concentration (μM) of analyte PEA, 0 min (male, Beagle, dog): 0.024 µM
Concentration (μM) of analyte PEA, 10 min (male, Beagle, dog): 0.044 µM
Concentration (μM) of analyte PEA, 20 min (male, Beagle, dog): 0.036 µM
Concentration (μM) of analyte PEA, 30 min (male, Beagle, dog): 0.041 µM
Concentration (μM) of analyte PEA, 60 min (male, Beagle, dog): 0.038 µM
% Remaining of Initial (n = 1), 0 min (male, Beagle, dog): 100%
% Remaining of Initial (n = 1), 10 min (male, Beagle, dog): 72%
% Remaining of Initial (n = 1), 20 min (male, Beagle, dog): 79%
% Remaining of Initial (n = 1), 30 min (male, Beagle, dog): 74%
% Remaining of Initial (n = 1), 60 min (male, Beagle, dog): 85%
half-life at 1 μM (male, Beagle, dog): > 1 h
Concentration (μM) of analyte PEA, 0 min (male, CD-1, mouse): 0.046 µM
Concentration (μM) of analyte PEA, 10 min (male, CD-1, mouse): 0.061 µM
Concentration (μM) of analyte PEA, 20 min (male, CD-1, mouse): 0.043 µM
Concentration (μM) of analyte PEA, 30 min (male, CD-1, mouse): 0.029 µM
Concentration (μM) of analyte PEA, 60 min (male, CD-1, mouse): 0.018 µM
% Remaining of Initial (n = 1), 0 min (male, CD-1, mouse): 100%
% Remaining of Initial (n = 1), 10 min (male, CD-1, mouse): 66%
% Remaining of Initial (n = 1), 20 min (male, CD-1, mouse): 50%
% Remaining of Initial (n = 1), 30 min (male, CD-1, mouse): 59%
% Remaining of Initial (n = 1), 60 min (male, CD-1, mouse): 50%
Concentration (μM) of analyte PEA, 0 min (male, Sprague-Dawley, rat): 0.020 µM
Concentration (μM) of analyte PEA, 10 min (male, Sprague-Dawley, rat): 0.025 µM
Concentration (μM) of analyte PEA, 20 min (male, Sprague-Dawley, rat): 0.037 µM
Concentration (μM) of analyte PEA, 30 min (male, Sprague-Dawley, rat): 0.026 µM
Concentration (μM) of analyte PEA, 60 min (male, Sprague-Dawley, rat): 0.013 µM
% Remaining of Initial (n = 1), 0 min (male, Sprague-Dawley, rat): 100%
% Remaining of Initial (n = 1), 10 min (male, Sprague-Dawley, rat): 98%
% Remaining of Initial (n = 1), 20 min (male, Sprague-Dawley, rat): 82%
% Remaining of Initial (n = 1), 30 min (male, Sprague-Dawley, rat): 75%
% Remaining of Initial (n = 1), 60 min (male, Sprague-Dawley, rat): 67%
half-life at 1 μM (male, Sprague-Dawley, rat): > 1 h
half-life at 1 μM (male, Sprague-Dawley, rat, calculated half-life in parentheses): 1.52 h
Structure (SMILES): CC/C=C\C/C=C\C/C=C\C/C=C\C/C=C\CCCC(=O)OCCNC(=O)CCCCCCCCCCCCCCC [Compound I-5]

Reference: patent US11547681B2, “N-acylethanolamide derivatives and uses thereof” (ELIEM THERAPEUTICS, INC., priority 2016, dated 2023)
